Several values for one entry are separate records, joined by “and”; a condition that tells them apart may be missing. Identical values can stand only once.
Experiments:
[1] = system: human microvascular endothelial cells (DMVEC); assay: FACS analysis of adhesion molecule surface expression on DMVEC; format: cell-based; details: IL-1β 5 ng/ml, 12 hr; 3 independent experiments
Procedure: Flow cytometry analysis of dermal microvascular cells (DMVEC) was performed essentially as described (Weber C. et al., 1995). Briefly, confluent DMVEC stimulated with IL-Iβ (5 ng/ml), or left untreated for 12 h, were trypsinized, reacted with IL-saturating concentrations of ICAM-1 mAb RR1/1 (kindly provided by Dr. R. Rothlein), E-selectin mAb, VCAM-1 mAb (both Serotec), or isotype control for 30 min on ice, stained with fluorescein isothiocyanate (FITC)-conjuzated goat anti-mouse IgG (Boehringer Mannheim), and analysed in a FACScan (Becton Dickinson). After correction for unspecific binding, data were expressed as specific mean log fluorescence intensity (sMFI) in channels.

MonoMac 6 cells on DMVEC = assay: Monocyte recruitment on microvascular endothelium under physiological flow (laminar flow assay); format: cell-based, human
Procedure: The interaction of monocytes with DMVEC was studied in laminar flow assays performed essentially as descried (Weber C. et al., 1997, Kukerti S. et al., 1997, Piali L. et al., 1998). Briefly, DMVEC were grown to confluence in 35 mm Petri dishes, and stimulated with IL-1β (5 ng/ml) or left untreated for 12 h. The plates were assembled as the lower wall m a parallel wall flow chamber and mounted on the stage of an Olympus IMT-2 inverted microscope with 20× and 40× phase contrast objectives. Monotypes (MonoMac 6 cells) were cultured as reported (Ziegler-Heitbrock H. W. L. et al., 1988, Weber C. et al., 1993) and resuspended at 10^6/ml in assay buffer (HBSS) containing 10 mM Hepes/pH 7.4 and 0.5% HAS. Shortly before assay, 1 mM Mg^2+and 1 mM Ca^2+ was added. The cell suspensions were kept in a heating block at 37° C. during the assay and were perfused into the flow chamber at a rate of 1.5 dyn/cm for 5 min. For inhibition experiments, monocytes were preincubated with Met-RANTES at different concentrations (0.01-1 μg/ml) for 30 min on ice. The number of firmly adherent cells after 5 rain was quantified in multiple fields (at least 5 per experiment) by analysis of images recorded with a long integration JVC 3CCD video camera and a JVC SR L 900 E video recorder, and were expressed as cells/mm^2. The type of adhesion analysed was restricted to primary, i.e. direct interactions of monocytes with endotbelium. As an inverse measure of firm arrest, the number of cells rolling at reduced velocity on endothelium was determined within the last 30 sec. of the 5 min intervals, and were assessed as the percentage of all interactions in the field. The number of cells spreading or transmigrating after 5 min intervals was determined in high power fields as described (Luscinskas F. W. et al., 1994), and expressed as percentage of cells firmly attached.
In an attempt to gain insight into potential mechanisms of action of Met-RANTES, we studied whether a blockade of RANTES receptors could inhibit the firm arrest and diapedesis of monocytes on microvascular endothelium. To this end, we used monocytic MonoMac 6 cells that show the adhesive characteristics and integrin repertoire of mature monocytes, and express several chemokine receptors including CCR1 (Erl W. et al., 1995). DMVEC were grown to confluence on Petri dishes which were either left unstimulated or were activated with IL-1β (5 ng/ml) for 12 h. […] Under such physiological flow conditions, MonoMac 6 cells undergo short periods of rolling, and the attachment of a proportion of cells can be readily converted into shear-resistant arrest. After 5 min of accumulation, the number of MonoMac 6 cells that had undergone firm adhesion to the endothelium was determined (FIG. 2(a)).

[2] = system: dermal microvascular endothelium (DMVEC); assay: In vitro RANTES binding assay on DMVEC (modified ELISA); design: species or system human
Procedure: The DMVEC were grown to confluency on coated 96 well flat bottom plates, The resultant endothelial monolayer was either left untreated or treated with various concentrations of IL-L1β (0.1 to 5 ng/ml) for 12 h. The RANTES binding assay was a modification of a previously described procedure (Pattison J. et al., 1994, Wiedermann C. J. et al., 1993). Horseradish, peroxidase (HRP) conjugated anti-human-RANTES monoclonal antibody VL1 (0.1 μg) was pre-incubated at 25° C. for 30 min with an excess of recombinant human RANTES (20 μg/ml) in DMVEC growth media (without supplements). The chemokine-antibody complex was added then used to assay the relative chemokine binding capacity of the microvascular endothelium. The endothelial monolayer was gently washed 1× with unsupplemented growth media (25° C.) and the chemokine-antibody complex was added and incubated at 25° C. for 30 min. The wells were then washed four times with media without sera at 25° C. […] The optical density at 406 nm of the plate was determined using an ELISA plate reader.
Since a reduction of monocyte infiltration into vascular luminal spaces represented a prominent feature of Met-RANTES treatment in both transplantation models, we set out to study potential mechanisms for this effect. […] Using an ELISA-like format, the capacity of DMVEC to bind the antigen-mAb complex as opposed to mAb alone was determined. […]

Substance	ICAM-1 surface expression, SMFI [1]	spreading or transmigration of monocytes (MonoMac 6 cells on DMVEC; after firm arrest, 5 min, IL-1β activated DMVEC)	firm adhesion of monocytic cells to unstimulated microvascular endothelium (MonoMac 6 cells on DMVEC; endothelial cells pre-exposed to RANTES)	firm arrest and accumulation of monocytes on IL-1β-activated microvascular endothelium (MonoMac 6 cells on DMVEC; endothelium pre-exposed to RANTES (10 ng/ml, 30 min), within 5 min)	fraction of monocytes rolling on the activated microvascular endothelium (MonoMac 6 cells on DMVEC; inverse measure of firm arrest, IL-1β activated DMVEC)	RANTES binding to microvascular endothelium following prestimulation ([2]; prestimulation with proinflammatory cytokine (5 ng/ml, 12 hours))	RANTES binding to microvascular endothelium without prestimulation ([2]; resting DMVEC, HRP-VL1 mAb/RANTES complex)
IL-1β: proinflammatory cytokine purchased from Sigma, used to activate DMVEC	502 channels and 592 channels and 432 channels	–	–	–	–	–	–
RANTES: recombinant human C-C chemokine (regulated upon activation, normal T-cell expressed and secreted)	–	did not alter	no significant effect	markedly enhanced	reduced	greatly increased	could bind some RANTES protein

— US6902728B1, “Chemokine receptor antagonist and cyclosporin in combined therapy” (Applied Research Systems ARS Holding N.V., priority 1998, dated 2005)
